Assay results published in US12065654B2, “Plants having increased tolerance to herbicides” (BASF SE, priority 2014, dated 2024).

Tests used:
[1] = biological target: T1, Arabidopsis HPPD (SEQ ID NO:53) (Arabidopsis thaliana, UniProt P93836); test: HPPD activity assay (HPLC of homogentisic acid); format: biochemical; settings: Arabidopsis HPPD
T1 construct: His6 (N); made in house; host or cells: E. coli BL21 (DE3)
T1 sequence (P93836 1-445): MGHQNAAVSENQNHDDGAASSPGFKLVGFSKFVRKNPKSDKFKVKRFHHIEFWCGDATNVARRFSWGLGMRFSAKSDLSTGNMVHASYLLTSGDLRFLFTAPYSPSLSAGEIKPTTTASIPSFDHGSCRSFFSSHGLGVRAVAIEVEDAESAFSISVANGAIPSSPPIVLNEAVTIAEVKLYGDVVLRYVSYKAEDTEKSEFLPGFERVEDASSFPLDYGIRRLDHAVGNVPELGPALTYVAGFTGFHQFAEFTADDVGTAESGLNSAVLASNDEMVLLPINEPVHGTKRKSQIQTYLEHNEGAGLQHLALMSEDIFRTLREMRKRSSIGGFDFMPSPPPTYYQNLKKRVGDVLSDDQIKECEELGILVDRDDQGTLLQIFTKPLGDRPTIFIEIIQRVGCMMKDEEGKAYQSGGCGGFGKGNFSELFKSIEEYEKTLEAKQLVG
Method: (§1) The activity assay for HPPD is based on the analysis of homogentisic acid by reversed phase HPLC.
(§2) The assay mixture can contain 150 mM potassium phosphate buffer pH 7.0, 50 mM L-ascorbic acid, 100 μM Catalase (Sigma-Aldrich), 1 μM FeSO4 and 0.2 units of purified HPPD enzyme in a total volume of 505 μl. 1 unit is defined as the amount of enzyme that is required to produce 1 nmol of HGA per minute at 20° C.
(§3) The reaction is allowed to proceed for 45 min at room temperature. The reaction is stopped by the addition of 50 μl of 4.5 M phosphoric acid. The sample is filtered using a […] pore size PVDF filtration device. 5 μl of the cleared sample is analyzed on an UPLC HSS T3 column (particle size 1.8 μm, dimensions 2, 1×50 mm; Waters) by isocratic elution using 90% 20 mM NaH2PO4 pH 2.2, 10% methanol (v/v).
(§4) HGA is detected electrochemically at 750 mV (mode: DC; polarity: positive) and quantified by integrating peak areas (Empower software; Waters).
(§5) Inhibitors are dissolved in DMSO (dimethylsulfoxide) to a concentration of 0.5 mM. From this stock solution serial five-fold dilutions are prepared in DMSO, which are used in the assay. The respective inhibitor solution accounts for 1% of the assay volume. Thus, final inhibitor concentrations range from 5 μM to 320 pM, respectively. Activities are normalized by setting the uninhibited enzyme activity to 100%. IC50 values are calculated using non-linear regression.
(§6) Using methods which are described in the above examples or well known in the art, purified recombinant wild-type HPPD enzymes are characterized with respect to their kinetic properties and sensitivity towards HPPD inhibiting herbicides. Apparent michaelis constants (Km) and maximal reaction velocities (Vmax) are calculated by non-linear regression with the software GraphPad Prism 5 (GraphPad Software, La Jolla, USA) using a substrate inhibition model. […] Weighted means (by standard error) of Km and IC50 values are calculated from at least three independent experiments. The Cheng-Prusoff equation for competitive inhibition (Cheng, Y. C.; Prusoff, W. H. Biochem Pharmacol 1973, 22, 3099-3108) is used to calculate dissociation constants (Ki).
(§7) Field performance of the HPPD enzyme, which is used as a herbicide tolerance trait may depend not only on its lack of sensitivity towards HPPD inhibiting herbicides but also on its activity. To assess the potential performance of a herbicide tolerance trait a tolerance index (TI) is calculated using the following formula: […]
(§8) Easy comparison and ranking of each trait is enabled by normalizing tolerance indexes on Arabidopsis wild-type HPPD.

[2] = biological target: T2, Hordeum HPPD (SEQ ID NO:2) (Hordeum vulgare, UniProt O48604, A164G/R146V/R147D/R148G); test: HPPD activity assay; format: biochemical; settings: Hordeum HPPD
T2 construct: His-tag (N); made in house; host or cells: E. coli BL21 (DE3)
T2 sequence (O48604 whole entry R146V/R147D/R148G/A164G): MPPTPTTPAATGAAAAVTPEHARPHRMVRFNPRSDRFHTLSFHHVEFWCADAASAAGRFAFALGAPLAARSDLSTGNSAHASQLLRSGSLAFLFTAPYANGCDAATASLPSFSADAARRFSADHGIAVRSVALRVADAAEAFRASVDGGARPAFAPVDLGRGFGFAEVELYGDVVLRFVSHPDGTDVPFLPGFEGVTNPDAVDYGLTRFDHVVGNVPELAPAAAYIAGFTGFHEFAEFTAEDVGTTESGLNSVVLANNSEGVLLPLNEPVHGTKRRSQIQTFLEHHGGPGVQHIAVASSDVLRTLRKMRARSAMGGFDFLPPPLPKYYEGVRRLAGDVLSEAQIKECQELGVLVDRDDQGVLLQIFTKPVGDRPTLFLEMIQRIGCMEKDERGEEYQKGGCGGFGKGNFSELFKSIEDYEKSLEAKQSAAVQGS
Method: as §1, §2, §3, §4, §5, §6, §7, §8

[3] = turnover number, substrate 4-HPP
[4] = read-out: Km [μM] (4-HPP), apparent michaelis constant

## O=C(O)C(=O)Cc1ccc(O)cc1 [Inhibitor 4-HPP, 4-hydroxyphenylpyruvate]
[1]; [3]
  kcat: 12.9 s⁻¹
[1]; [4]
  Km: 13 µM
[2]; [3]
  kcat: 11.5 s⁻¹
[2]; [4]
  Km: 26 µM
